Marks after values point to notes of the source that are not given here. Values belong to the substance of their own block, whether it stands above or below them.
Key:
[1] = target: T1, rat primary pituitary cells (Rattus norvegicus, UniProt Q02644); assay: Growth hormone release in vitro from rat primary pituitary cells; type: cell-based; conditions: growth hormone released into media after exposure to 7 doses of secretagogue for 3h
T1 sequence (Q02644 23-464): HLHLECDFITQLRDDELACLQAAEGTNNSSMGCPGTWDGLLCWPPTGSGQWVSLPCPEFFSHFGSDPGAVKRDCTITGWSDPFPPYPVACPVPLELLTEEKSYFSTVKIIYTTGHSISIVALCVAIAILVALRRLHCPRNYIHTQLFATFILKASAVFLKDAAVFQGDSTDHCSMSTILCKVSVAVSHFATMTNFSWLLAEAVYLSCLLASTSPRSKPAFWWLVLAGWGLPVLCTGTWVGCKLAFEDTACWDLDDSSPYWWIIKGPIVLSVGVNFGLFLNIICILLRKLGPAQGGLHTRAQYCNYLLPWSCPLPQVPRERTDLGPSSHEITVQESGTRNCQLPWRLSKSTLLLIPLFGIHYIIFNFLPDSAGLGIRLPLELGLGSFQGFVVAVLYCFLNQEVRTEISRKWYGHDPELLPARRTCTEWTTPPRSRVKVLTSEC
Protocol: The polypeptide compounds of the invention may be assayed in numerous systems. One in vivo assay is carried out in sodium pentobarbital-anesthetized rats. Wehrenberg et al., Biochem. Biophys. Res. Commun. 109:382 (1982). Growth hormone release is measured in vitro with rat anterior pituitary cells. Heiman et al., Endocrinol. 116:410 (1985).

barrows = assay: In vivo effects in barrows injected subcutaneously or intravenously 3 times daily (urinary urea nitrogen excretion and serum parameters); conditions: for GH: serum Growth Hormone level; for GH / TRIG. / BUN / FFA / GLUCOSE / INSULIN: 12th day of treatment; for GH / TRIG. / BUN / FFA / GLUCOSE / INSULIN / UREA: means; for TRIG.: serum triglycerides; for BUN / FFA / GLUCOSE / INSULIN: serum; for UREA: urinary urea nitrogen excretion, injected 3 times daily
Protocol: A carrier solution was prepared by dissolving 1.38 g of Na2HP04 and 1.0g PSA with pyrogen free H2O to a final volume of 1 litre, pH approximately 5.1. 27.4 mg The p-methyl hippuroyl pGRF (2-76)OH prepared in substantial accordance with the teaching of Example 4.B. above was added to 64 ml of the carrier solution to achieve a final concentration of […].
Twenty crossbred barrows, averaging approximately 72 kg, with an indwelling catheter which had been surgically inserted into the femoral vein, were used to determine the effects of p-methyl hippuroyl pGRF (2-76)OH. A formulation of the p-methyl hippuroyl pGRF (2-76)OH was prepared in substantial accordance with the teaching of Example 11 above and injected 3 times daily at a rate of 10.0 µg/kg/inj., either intravenously (I.V.) or subcutaneously (S.Q.). The barrows were fed 2000 g of an 18.5% crude protein corn-soy diet per day, equally divided between 2 feedings at 8:00 a.m. and 4:00 p.m. The barrows were injected at 8:00 a.m., 4:00 p.m., and 12:00 p.m. Urinary urea nitrogen excretion data were collected during 1 5day control period, 4 3-day treatment periods, and 2 3-day periods after treatments were stopped. Thirty blood serum samples were collected during a 24-hour period on the 12th day of treatment. The serum samples were assayed for GH, BUN, glucose, insulin, FFA, and triglycerides.

[2] = Table 1, bGRF analogs, EC50 is the calculated median effective dose
[3] = injected 3 times daily at a rate of 30.0 µg/kg/d, versus control barrows

Substance: bGRF (1-77)0H [reference compound]
- EC50 [1, 2]: 0.59 nM

Substance: des Tyr-1 pGRF(2-76)0H [reference compound]
- EC50 ([1]; Table 2, pGRF(2-76)OH analogs): 95 nM

Substance: p-Chloro Hippuroyl bGRF(2-77)OH
- EC50 [1, 2]: 0.19 nM

Substance: p-Hydroxy Hippuroyl bGRF(2-77)0H
- EC50 [1, 2]: 0.33 nM

Substance: p-Methyl Hippuroyl bGRF(2-77)OH
- EC50 [1, 2]: 0.05 nM

Substance: p-Methyl Hippuroyl pGRF(2-76)OH
- increase in serum GH levels (barrows; [3]): 4 fold
- reduction in serum BUN levels (barrows; [3]): 54%
- reduction in urinary urea nitrogen excretion (barrows; [3]): 41%
- GH (barrows; IV 30 µg/kg/d): 9.9^b ng/ml
- GH (barrows; SQ 30 µg/kg/d): 8.9^b ng/ml
- TRIG. (barrows; IV 30 µg/kg/d): 35.3^b mg/dla
- TRIG. (barrows; SQ 30 µg/kg/d): 32.5^ab mg/dla
- BUN (barrows; IV 30 µg/kg/d): 7.0^b mg/dl
- FFA (barrows; IV 30 µg/kg/d): 97.3^b µM/la
- GLUCOSE (barrows; IV 30 µg/kg/d): 132.7^b mg/dl
- INSULIN (barrows; IV 30 µg/kg/d): 76.8^b µu/ml
- BUN (barrows; SQ 30 µg/kg/d): 7.5^b mg/dl
- FFA (barrows; SQ 30 µg/kg/d): 97.5^b µM/la
- GLUCOSE (barrows; SQ 30 µg/kg/d): 147.3^b mg/dl
- INSULIN (barrows; SQ 30 µg/kg/d): 112.9^C µu/ml
- depression in urinary urea nitrogen excretion prolonged after treatments were stopped (barrows; subcutaneously injected barrows): 2 to 3 days
- UREA (barrows; IV 30 µg/kg/d): 16.3^b g/day
- UREA (barrows; SQ 30 µg/kg/d): 16.4^b g/day
- EC50 ([1]; Table 2, pGRF(2-76)OH analogs): 0.06 nM
- EC50 ([1]; Table 3, p-Methyl Hippuroyl-1 pGRF analogs of different length): 0.06 nM

Substance: p-Nitro Hippuroyl bGRF (2-77)0H
- EC50 [1, 2]: 0.51 nM

More lines, now with the values ahead:

- EC50 [1, 2]: 0.86 nM
Substance: Hippuroyl-1 bGRF(2-77)0H

- EC50 ([1]; Table 2, pGRF(2-76)OH analogs): 0.28 nM
Substance: Hippuroyl-1 pGRF(2-76)OH

- EC50 [1, 2]: 0.19 nM
Substance: n-Phenylmalonamindoyl bGRF(2-77)0H

- EC50 [1, 2]: 0.14 nM
Substance: p-Fluoro Hippuroyl bGRF(2-77)0H

- EC50 ([1]; Table 2, pGRF(2-76)OH analogs): 0.06 nM
Substance: p-Methyl Phenylmalonamindoyl pGRF(2-76)OH

Reference: patent publication EP0511003B1, “Superactive GRF analogs” (ELI LILLY AND COMPANY, priority 1991, dated 1992)
